Assay results published in ChEMBL document CHEMBL1143343, “Cooperative alkylation of double-strand human telomere repeat sequences by PI polyamides with 11-base-pair recognition based on a heterotrimeric design” (Bioorg Med Chem, 2009).
pIC50: −log10 of the molar value. Calls of active or inactive are those of the source. No cut-off for these calls is given here.

How the values were obtained:
Calf thymus DNA [1] = assay: (§1) Binding affinity to site 2 human telomeric 5'GGTTAGGGTTA3' sequence in 219 bp calf thymus DNA fragment assessed as DNA alkylating activity at 20 to 500 nM after 12 hrs by PAGE in presence of {3-[(4-{[4-({4-[(4-Acetylamino-1-methyl-1H-pyrrole-2-carbonyl)-amino]-1-methyl-1H-pyrrole-2-carbonyl}-amino)-1-methyl-1H-pyrrole-2-carbonyl]-amino}-1-methyl-1H-pyrrole-2-carbonyl)-amino]-propyl}-dimethyl-ammonium; assay type: nucleic-acid assay
Jurkat [2] = assay: Cytotoxicity against human Jurkat cells after 48 hrs by WST-8 assay in presence of 10 uM {3-[(4-{[4-({4-[(4-Acetylamino-1-methyl-1H-pyrrole-2-carbonyl)-amino]-1-methyl-1H-pyrrole-2-carbonyl}-amino)-1-methyl-1H-pyrrole-2-carbonyl]-amino}-1-methyl-1H-pyrrole-2-carbonyl)-amino]-propyl}-dimethyl-ammonium pretreated 24 hrs before compound addition; assay type: functional, cell-based
Calf thymus DNA [3] = assay: Binding affinity to site 4 human telomeric 5'GGTTAGGGTTA3' sequence in 219 bp calf thymus DNA fragment assessed as DNA alkylating activity at 20 to 500 nM after 12 hrs by PAGE in presence of distamycin A; assay type: nucleic-acid assay
Calf thymus DNA [4] = assay: Binding affinity to site 2 human telomeric 5'GGTTAGGGTTA3' sequence in 219 bp calf thymus DNA fragment assessed as DNA alkylating activity at 20 to 500 nM after 12 hrs by PAGE in presence of distamycin A; assay type: nucleic-acid assay
Calf thymus DNA [5] = assay: as §1, with “to” for “to site 2”, “repeat” for “5'GGTTAGGGTTA3'”, “200” for “20 to 500”; assay type: nucleic-acid assay
Calf thymus DNA [6] = assay: Binding affinity to human telomeric repeat sequence in 219 bp calf thymus DNA fragment assessed as DNA alkylating activity at 20 to 500 nM after 12 hrs by PAGE; assay type: nucleic-acid assay
Calf thymus DNA [7] = assay: Binding affinity to human telomeric repeat sequence in 219 bp calf thymus DNA fragment assessed as DNA alkylating activity at 20 to 500 nM after 12 hrs by PAGE in presence of 3-(4-(4-(4-(3-(3-(4-(4-(4-(4-acetamido-1-methyl-1H-pyrrole-2-carboxamido)-1-methyl-1H-pyrrole-2-carboxamido)-1-methyl-1H-pyrrole-2-carboxamido)-1-methyl-1H-pyrrole-2-carboxamido)propanamido)propanamido)-1-methyl-1H-pyrrole-2-carboxamido)-1-methyl-1H-pyrrole-2-carboxamido)-1-methyl-1H-pyrrole-2-carboxamido)-N,N-dimethylpropan-1-aminium; assay type: nucleic-acid assay
Calf thymus DNA [8] = assay: as §1, with “site 3” for “site 2”; assay type: nucleic-acid assay
Jurkat [9] = assay: Cytotoxicity against human Jurkat cells after 48 hrs by WST-8 assay in presence of 10 uM distamycin A pretreated 24 hrs before compound addition; assay type: functional, cell-based
Calf thymus DNA [10] = assay: as §1, with “site 4” for “site 2”; assay type: nucleic-acid assay
Calf thymus DNA [11] = assay: Binding affinity to site 3 human telomeric 5'GGTTAGGGTTA3' sequence in 219 bp calf thymus DNA fragment assessed as DNA alkylating activity at 20 to 500 nM after 12 hrs by PAGE in presence of distamycin A; assay type: nucleic-acid assay
Calf thymus DNA [12] = assay: Binding affinity to human telomeric repeat sequence in 219 bp calf thymus DNA fragment assessed as DNA alkylating activity at 200 nM after 12 hrs by PAGE in presence of distamycin A; assay type: nucleic-acid assay
Jurkat [13] = assay: Cytotoxicity against human Jurkat cells after 48 hrs by WST-8 assay; assay type: functional, cell-based

Activity (Calf thymus DNA [1]): Active
Activity (Calf thymus DNA [3]): Active
Activity (Calf thymus DNA [4]): Active
Activity (Calf thymus DNA [5]): Active
Activity (Calf thymus DNA [6]): inactive
Activity (Calf thymus DNA [7]): Active
Activity (Calf thymus DNA [8]): Active
Activity (Calf thymus DNA [10]): Active
Activity (Calf thymus DNA [11]): Active
Activity (Calf thymus DNA [12]): Active
Structure (SMILES): CC(=O)Nc1cn(C)c(C(=O)Nc2cn(C)c(C(=O)Nc3cn(C)c(C(=O)NCCC(=O)NCCC(=O)Nc4cn(C)c(C(=O)Nc5cn(C)c(C(=O)Nc6cn(C)c(C(=O)Nc7ccc8[nH]c(C(=O)N9CC(CCl)c%10c9cc(O)c9ccccc%109)cc8c7)n6)n5)n4)n3)n2)n1 (stereo not drawn)
pIC50 (Jurkat [2]): 7.10
pIC50 (Jurkat [9]): 7.49
pIC50 (Jurkat [13]): 7.00
